Earlier results on one molecule are cited in EP0398588A1, “Macrolide antibiotics” (ELI LILLY AND COMPANY, priority 1989, dated 1990).

The test system of this series is rats. The note with it: rat, in vivo, po.

`O=C1C[C@@H]2OCC=C3CN4CC[C@]56c7ccccc7N1[C@H]5[C@H]2[C@H]3C[C@H]46` [strychnine]: the MLD is listed as 5 mg/kg.
